Data from publication PMC10444021, “Design and synthesis of new spirooxindole candidates and their selenium nanoparticles as potential dual Topo I/II inhibitors, DNA intercalators, and apoptotic inducers” (Journal of Enzyme Inhibition and Medicinal Chemistry, 2023).
Values after ≈ are worked out from the molar mass of the structure shown.

Tests used:
[1] = test system: Caco-2; assay: MTT cytotoxicity, Caco-2; type: cell-based; details: Homo sapiens, mean ± SD
Method: (§1) The cytotoxic activities of the constructed members were assessed via the reported MTT method[49–52] (Supporting information).
(§2) The cytotoxic screening was performed using the MTT assay. […] Besides, the HCT-116 one was sensitive to only two samples, while the MCF7 was sensitive to one sample only. Two standard cytotoxic drugs: Dox and 5-fluorouracil (5-FU) were also applied on the same used cancer cell lines as references.

[2] = test system: A-549; assay: MTT cytotoxicity, A-549; type: cell-based; details: Homo sapiens, A549, mean ± SD
Method: as §1, §2

[3] = test system: HepG2; assay: MTT cytotoxicity, HepG2; type: cell-based; details: Homo sapiens, mean ± SD
Method: as §1, §2

[4] = test system: HCT-116; assay: MTT cytotoxicity, HCT-116; type: cell-based; details: Homo sapiens, mean ± SD
Method: as §1, §2

[5] = test system: MCF7; assay: MTT cytotoxicity, MCF7; type: cell-based; details: Homo sapiens, mean ± SD
Method: as §1, §2

[6] = Cytotoxic effects on normal bone marrow cells; type: cell-based, mice; details: mouse, mean ± SD
Method: as §1
The dose–response curves for the nanoform on each cell line are shown in the Supporting information, and the respective IC50s are shown in Table 3. The most promising cytotoxic samples were further investigated for their cytotoxic effects on normal mice bone marrow cells. The overall trending results were increasing the proliferation of the bone marrow cells at high concentrations of the samples, especially the 5b NPs nanoform sample, which reached up to 200% compared to the untreated cells. The dose–response curves on the bone marrow cells are represented in the Supporting information.

[7] = target: T1, Topo I (Homo sapiens, UniProt P11387); assay: Topo I inhibitory assay; type: biochemical
T1 sequence (P11387 1-765): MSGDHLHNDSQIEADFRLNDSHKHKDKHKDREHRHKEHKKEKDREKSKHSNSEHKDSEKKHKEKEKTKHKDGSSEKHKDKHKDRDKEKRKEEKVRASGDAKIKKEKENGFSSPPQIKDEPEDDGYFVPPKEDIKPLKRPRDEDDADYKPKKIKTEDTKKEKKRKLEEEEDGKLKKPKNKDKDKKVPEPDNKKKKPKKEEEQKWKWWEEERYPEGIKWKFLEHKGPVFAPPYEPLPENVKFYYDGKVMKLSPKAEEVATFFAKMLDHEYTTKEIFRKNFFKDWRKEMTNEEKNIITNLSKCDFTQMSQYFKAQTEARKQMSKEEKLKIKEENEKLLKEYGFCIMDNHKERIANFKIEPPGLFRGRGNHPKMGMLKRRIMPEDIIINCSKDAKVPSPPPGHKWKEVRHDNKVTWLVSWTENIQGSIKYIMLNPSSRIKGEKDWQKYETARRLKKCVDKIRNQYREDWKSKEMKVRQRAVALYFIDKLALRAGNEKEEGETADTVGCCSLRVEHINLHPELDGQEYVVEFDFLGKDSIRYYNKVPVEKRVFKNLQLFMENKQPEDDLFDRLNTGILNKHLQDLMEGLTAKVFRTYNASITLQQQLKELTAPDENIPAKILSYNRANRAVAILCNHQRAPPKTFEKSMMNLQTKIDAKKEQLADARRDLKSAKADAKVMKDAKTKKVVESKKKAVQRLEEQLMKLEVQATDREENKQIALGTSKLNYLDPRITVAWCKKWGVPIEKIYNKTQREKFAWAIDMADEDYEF
Method: (§3) The tested members were subjected to Topo I inhibitory activity evaluation using the previously reported method. While the Topo II inhibitory assay was done according to the method described by Patra et al.[55] (Supporting information).
(§4) Thus, compounds 5b and 7d in addition to their nano complexes 5b NPs and 7d NPs were evaluated for their enzyme inhibitory effects.

[8] = test system: Topo II; assay: Topo II inhibitory assay; type: biochemical
Method: as §3, §4

[9] = test system: DNA; assay: DNA intercalation assay (linear DNA formation); type: biochemical; details: even at low concentrations; gel
Method: The reported procedure by Atwal et al. was our guide to test the DNA intercalating ability of our candidates[56] (Supporting information).
The ability of the designed members to intercalate onto the DNA molecules and increase the levels of Topo I–DNA as well as Topo II-DNA cleavage complexes by stabilising the enzymes–DNA covalent complexes were also assayed. Thus, the amount of linear DNA formed by compounds 5b and 7d, in addition to their nanoforms 5b NPs and 7d NPs, was measured. […] As so, the designed congeners were then considered promising DNA intercalating members (Figure 11).

In the case of `CCn1c2c(c(=O)[nH]c1=O)C1(C(=O)Nc3ccccc31)c1c(n(CC)c(=O)[nH]c1=O)N2` [Compound 3, 1′,9′-Diethyl-1′H-spiro[indoline-3,5′-pyrido[2,3-d:6,5-d′]dipyrimidine]-2,2′,4′,6′,8′(3′H,7′H,9′H,10′H)-pentaone], the IC50 [1] is reported as 259 ± 9.4 µg/mL (≈ 614 µM), the IC50 [2] is reported as 291 ± 16.4 µg/mL (≈ 689 µM) and the melting point is reported as greater than 300 °C.

With `O=c1[nH]cc(F)c(=O)[nH]1` [Compound 5-FU, 5-fluorouracil, reference compound] the IC50 [3] was 103 ± 9.8 µg/mL (≈ 792 µM), the IC50 [4] was 76.3 ± 6.8 µg/mL (≈ 587 µM) and the IC50 [1] was 4.4 ± 0.3 µg/mL (≈ 33.8 µM). For the same compound, the IC50 [2] was 1.1 ± 0.1 µg/mL (≈ 8.46 µM), the IC50 [5] was 39.3 ± 2.9 µg/mL (≈ 302 µM) and the IC50 [6] was 103 ± 9.8 µg/mL (≈ 792 µM).

Compound `Cn1c2c(c(=O)[nH]c1=O)C1(C(=O)Nc3ccc([N+](=O)[O-])cc31)c1c(n(C)c(=O)[nH]c1=O)N2` [Compound 5a, 1′,9′-Dimethyl-5-nitro-1′H-spiro[indoline-3,5′-pyrido[2,3-d:6,5-d′]dipyrimidine]-2,2′,4′,6′,8′(3′H,7′H,9′H,10′H)-pentaone] has an IC50 [3] of 563 ± 25.5 µg/mL (≈ 1280 µM), an IC50 [1] of 207 ± 19.4 µg/mL (≈ 471 µM) and a melting point greater than 300 °C.

Work on `CCn1c2c(c(=O)[nH]c1=O)C1(C(=O)Nc3ccc([N+](=O)[O-])cc31)c1c(n(CC)c(=O)[nH]c1=O)N2` [Compound 5b, 1′,9′-Diethyl-5-nitro-1′H-spiro[indoline-3,5′-pyrido[2,3-d:6,5-d′]dipyrimidine]-2,2′,4′,6′,8′(3′H,7′H,9′H,10′H)-pentaone] yielded an IC50 [3] of 114 ± 10.1 µg/mL (≈ 243 µM), an IC50 [1] of 35.2 ± 4.1 µg/mL (≈ 75.3 µM) and an IC50 [7] of 651 nM. For the same compound, the IC50 [8] was 4470 nM and the “formation of linear DNA” value [9] was “considerable formation of linear DNA”.

Work on `Cn1c2c(c(=O)[nH]c1=S)C1(C(=O)Nc3ccc([N+](=O)[O-])cc31)c1c(n(C)c(=S)[nH]c1=O)N2` [Compound 5c, 1′,9′-Dimethyl-5-nitro-2′,8′-dithioxo-2′,3′,8′,9′-tetrahydro-1′H-spiro[indoline-3,5′-pyrido[2,3-d:6,5-d′]dipyrimidine]-2,4′,6′(7′H,10′H)-trione] yielded an IC50 [3] of 250 ± 19.3 µg/mL (≈ 531 µM), an IC50 [4] of 186 ± 19.4 µg/mL (≈ 394 µM) and an IC50 [1] of 247 ± 12.5 µg/mL (≈ 525 µM). For the same compound, the IC50 [2] was 525 ± 50.6 µg/mL (≈ 1110 µM) and the melting point was greater than 300 °C.

Work on `O=C1Nc2ccc([N+](=O)[O-])cc2C12c1c(n(Cc3ccccc3)c(=O)[nH]c1=O)Nc1c2c(=O)[nH]c(=O)n1Cc1ccccc1` [Compound 5d, 1′,9′-Dibenzyl-5-nitro-1′H-spiro[indoline-3,5′-pyrido[2,3-d:6,5-d′]dipyrimidine]-2,2′,4′,6′,8′(3′H,7′H,9′H,10′H)-pentaone] yielded an IC50 [3] of 422 ± 22.8 µg/mL (≈ 713 µM), an IC50 [1] of 108 ± 10 µg/mL (≈ 183 µM) and an IC50 [2] of 279 ± 18.9 µg/mL (≈ 472 µM). For the same compound, the melting point was greater than 300 °C.

`O=C1Nc2ccc([N+](=O)[O-])cc2C12c1c([nH]c(=O)[nH]c1=O)Nc1[nH]c(=O)[nH]c(=O)c12` [Compound 5e, 5-Nitro-1′H-spiro[indoline-3,5′-pyrido[2,3-d:6,5-d′]dipyrimidine]-2,2′,4′,6′,8′(3′H,7′H,9′H,10′H)-pentaone] showed an IC50 [3] of 147 ± 10.5 µg/mL (≈ 357 µM), an IC50 [1] of 233 ± 19.2 µg/mL (≈ 566 µM) and a melting point greater than 300 °C.

Compound `Cn1c2c(c(=O)[nH]c1=O)C1(C(=O)Nc3ccc(Cl)cc31)c1c(n(C)c(=O)[nH]c1=O)N2` [Compound 7a, 5-Chloro-1′,9′-dimethyl-1′H-spiro[indoline-3,5′-pyrido[2,3-d:6,5-d′]dipyrimidine]-2,2′,4′, 6′,8′(3′H,7′H,9′H,10′H)-pentaone] has an IC50 [3] of 120 ± 9.2 µg/mL (≈ 281 µM), an IC50 [1] of 113 ± 10.4 µg/mL (≈ 263 µM) and an IC50 [2] of 50.1 ± 5.9 µg/mL (≈ 117 µM).

Compound `CCn1c2c(c(=O)[nH]c1=O)C1(C(=O)Nc3ccc(Cl)cc31)c1c(n(CC)c(=O)[nH]c1=O)N2` [Compound 7b, 5-Chloro-1′,9′-diethyl-1′H-spiro[indoline-3,5′-pyrido[2,3-d:6,5-d′]dipyrimidine]-2,2′,4′, 6′,8′(3′H,7′H,9′H,10′H)-pentaone] has an IC50 [5] of 171 ± 22.8 µg/mL (≈ 374 µM) and a melting point greater than 300 °C.

For `Cn1c2c(c(=O)[nH]c1=S)C1(C(=O)Nc3ccc(Cl)cc31)c1c(n(C)c(=S)[nH]c1=O)N2` [Compound 7c, 5-Chloro-1′,9′-dimethyl-2′,8′-dithioxo-2′,3′,8′,9′-tetrahydro-1′H-spiro[indoline-3,5′-pyrido [2,3-d:6,5-d′]dipyrimidine]-2,4′,6′(7′H,10′H)-trione], the melting point was greater than 300 °C.

Compound `O=C1Nc2ccc(Cl)cc2C12c1c(n(Cc3ccccc3)c(=O)[nH]c1=O)Nc1c2c(=O)[nH]c(=O)n1Cc1ccccc1` [Compound 7d, 1′,9′-Dibenzyl-5-chloro-1′H-spiro[indoline-3,5′-pyrido[2,3-d:6,5-d′]dipyrimidine]-2,2′,4′, 6′,8′(3′H,7′H,9′H,10′H)-pentaone] has an IC50 [3] of 91.4 ± 11.3 µg/mL (≈ 157 µM), an IC50 [2] of 329 ± 12.5 µg/mL (≈ 566 µM) and an IC50 [7] of 419 nM. For the same compound, the IC50 [8] was 2660 nM and the “formation of linear DNA” value [9] was “considerable formation of linear DNA”.

`O=C1Nc2ccc(Cl)cc2C12c1c([nH]c(=O)[nH]c1=O)Nc1[nH]c(=O)[nH]c(=O)c12` [Compound 7e, 5-Chloro-1′H-spiro[indoline-3,5′-pyrido[2,3-d:6,5-d′]dipyrimidine]-2,2′,4′,6′,8′(3′H,7′H,-9′H,10′H)-pentaone] gave an IC50 [3] of 89.7 ± 6.5 µg/mL (≈ 224 µM), an IC50 [4] of 435 ± 39.5 µg/mL (≈ 1080 µM) and an IC50 [1] of 472 ± 23.6 µg/mL (≈ 1180 µM).

For `Cn1c2c(c(=O)[nH]c1=O)C1(C(=O)Nc3ccc(F)cc31)c1c(n(C)c(=O)[nH]c1=O)N2` [Compound 9b, 5-Fluoro-1′,9′-dimethyl-1′H-spiro[indoline-3,5′-pyrido[2,3-d:6,5-d′]dipyrimidine]-2,2′,4′,6′,8′(3′H,7′H,9′H,10′H)-pentaone], the IC50 [3] was 86.4 ± 7.4 µg/mL (≈ 210 µM), the IC50 [1] was 492 ± 40.4 µg/mL (≈ 1190 µM) and the IC50 [2] was 293 ± 15.4 µg/mL (≈ 710 µM). The melting point was greater than 300 °C.

With `COc1cccc2c1C(=O)c1c(O)c3c(c(O)c1C2=O)C[C@@](O)(C(=O)CO)C[C@@H]3O[C@H]1C[C@H](N)[C@H](O)[C@H](C)O1` [Dox, doxorubicin, reference compound] the IC50 [3] was 0.3 ± 0.01 µg/mL (≈ 0.552 µM), the IC50 [4] was 1.1 ± 0.1 µg/mL (≈ 2.02 µM) and the IC50 [1] was 3.7 ± 0.2 µg/mL (≈ 6.81 µM). For the same compound, the IC50 [2] was 0.04 ± 0.003 µg/mL (≈ 0.0736 µM), the IC50 [5] was 5.9 ± 0.5 µg/mL (≈ 10.9 µM) and the IC50 [6] was 0.3 ± 0.01 µg/mL (≈ 0.552 µM).
